According to patent US10174035B2, “6-morpholinyl-2-pyrazolyl-9H-purine derivatives and their use as PI3K inhibitors” (Daiichi Sankyo Company, Limited, priority 2015, dated 2019):

Target: recombinant PI3K δ enzyme (Homo sapiens (Human), UniProt O00329)
Experiment: In vitro enzyme assay (Kinase-Glo luminescent kinase assay), PI3Kδ
Format: biochemical
Experimental: The Kinase-Glo luminescent kinase assay kit (from Promega) was used to measure kinase activity. In this assay, amount of ATP remaining in solution following a kinase reaction is measured. The effect of compounds on PI3Kδ inhibition was carried out by adding 2.29 μg/ml of recombinant PI3K δ enzyme (Proteros, Germany) to reaction mixture containing assay buffer (50 mM HEPES, pH 7.4, 50 mM NaCl, 0.05% CHAPS) supplemented with 10 mM MgCl2, 5 mM DTT, 60 μM Phosphatidyl inositol bisphosphate (PIP2) and 10 μM ATP in the absence or presence of different concentrations of the compounds in a final volume of 15 μl/well, in a 384 well plate. The reaction mixture was incubated for 2 hours at room temperature. At the end of incubation period the equal volume of Kinase-Glo plus (Promega, V3772), was added per well and the luminescence was measured after incubating for 10 minutes at room temperature in dark. Results were calculated by measuring the luminescence units of test samples to blanks containing no enzyme.
The compounds of the present invention were tested for their selectivity for PI3Kδ over PI3Kα, PI3Kβ and PI3Kγ following the above assay using specific recombinant enzymes (Proteros, Germany) for each kinase. Assay condition of kinase assay (PI3Kα, PI3Kβ, PI3Kγ and PI3Kδ) was as follows. Enzyme: 2.29 μg/mL; ATP: 10 μM; PIP2 substrate: 60 μM and Reaction Time: 2 hours.

Sequence of recombinant PI3K δ enzyme (O00329 whole entry, species assumed): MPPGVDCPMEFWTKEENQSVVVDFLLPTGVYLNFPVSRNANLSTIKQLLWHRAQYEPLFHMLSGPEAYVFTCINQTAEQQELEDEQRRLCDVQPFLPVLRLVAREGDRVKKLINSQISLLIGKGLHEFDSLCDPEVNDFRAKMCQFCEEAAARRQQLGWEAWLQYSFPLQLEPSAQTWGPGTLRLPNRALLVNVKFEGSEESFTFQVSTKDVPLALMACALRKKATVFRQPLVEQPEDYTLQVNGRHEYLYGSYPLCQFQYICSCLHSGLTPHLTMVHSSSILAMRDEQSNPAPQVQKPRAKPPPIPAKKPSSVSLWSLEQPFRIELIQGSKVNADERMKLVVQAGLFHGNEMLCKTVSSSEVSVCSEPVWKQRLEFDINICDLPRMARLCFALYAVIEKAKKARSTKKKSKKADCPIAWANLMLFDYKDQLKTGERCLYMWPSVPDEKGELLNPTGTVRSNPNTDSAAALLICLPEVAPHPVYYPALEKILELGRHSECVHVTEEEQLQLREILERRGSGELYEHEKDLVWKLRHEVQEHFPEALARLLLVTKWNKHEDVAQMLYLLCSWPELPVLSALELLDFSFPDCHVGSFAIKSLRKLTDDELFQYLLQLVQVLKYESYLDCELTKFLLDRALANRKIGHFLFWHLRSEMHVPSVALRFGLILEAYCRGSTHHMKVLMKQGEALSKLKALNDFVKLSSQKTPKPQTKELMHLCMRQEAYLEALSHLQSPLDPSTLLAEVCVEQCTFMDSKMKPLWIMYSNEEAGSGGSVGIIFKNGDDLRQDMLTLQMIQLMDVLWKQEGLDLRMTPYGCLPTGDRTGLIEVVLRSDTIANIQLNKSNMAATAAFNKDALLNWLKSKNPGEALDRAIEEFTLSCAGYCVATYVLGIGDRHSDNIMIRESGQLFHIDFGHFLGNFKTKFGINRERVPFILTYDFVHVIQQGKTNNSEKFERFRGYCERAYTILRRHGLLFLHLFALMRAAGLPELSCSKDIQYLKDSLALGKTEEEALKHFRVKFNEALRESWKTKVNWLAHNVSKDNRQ
Sequence of recombinant PI3K δ enzyme (P27986 whole entry partner, species assumed): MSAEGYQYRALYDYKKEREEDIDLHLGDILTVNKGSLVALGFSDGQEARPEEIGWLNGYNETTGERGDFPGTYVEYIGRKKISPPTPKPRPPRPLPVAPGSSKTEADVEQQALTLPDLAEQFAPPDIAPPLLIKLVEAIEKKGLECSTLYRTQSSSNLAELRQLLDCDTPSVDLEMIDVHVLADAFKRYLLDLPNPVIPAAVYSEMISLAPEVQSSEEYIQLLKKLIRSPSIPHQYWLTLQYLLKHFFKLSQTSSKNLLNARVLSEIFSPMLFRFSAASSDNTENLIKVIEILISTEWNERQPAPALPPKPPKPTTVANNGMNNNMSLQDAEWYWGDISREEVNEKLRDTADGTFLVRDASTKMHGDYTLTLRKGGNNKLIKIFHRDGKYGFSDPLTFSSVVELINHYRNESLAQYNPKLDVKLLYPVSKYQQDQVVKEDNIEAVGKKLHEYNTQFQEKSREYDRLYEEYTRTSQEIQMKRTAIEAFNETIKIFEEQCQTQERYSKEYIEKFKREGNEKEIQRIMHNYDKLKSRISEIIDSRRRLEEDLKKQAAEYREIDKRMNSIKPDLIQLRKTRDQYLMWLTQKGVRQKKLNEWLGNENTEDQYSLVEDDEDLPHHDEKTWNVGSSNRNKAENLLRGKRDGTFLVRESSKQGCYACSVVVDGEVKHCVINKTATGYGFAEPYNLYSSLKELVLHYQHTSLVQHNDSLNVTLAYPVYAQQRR

SMILES	IC50 [nM]
CN(C)C(=O)c1nc2c(N3CCOCC3)nc(-c3cnn(C)c3)nc2[nH]1 [compound 48, N,N-Dimethyl-2-(1-methyl-1H-pyrazol-4-yl)-6-(morpholin-4-yl)-9H-purine-8-carboxamide]	76
CCOC(=O)CC1CCN(C(=O)c2nc3c(N4CCOCC4)nc(-c4cnn(C)c4)nc3[nH]2)CC1 [compound 51, Ethyl (1-{[2-(1-methyl-1H-pyrazol-4-yl)-6-(morpholin-4-yl)-9H-purin-8-yl]carbonyl}piperidin-4-yl)acetate]	56
Cn1cc(-c2nc3[nH]c(C(=O)N4CCN5C(=O)COC[C@H]5C4)nc3c(N3CCOCC3)c2F)cn1 [compound 80, (9aR)-8-{[6-Fluoro-5-(1-methyl-1H-pyrazol-4-yl)-7-(morpholin-4-yl)-3H-imidazo[4,5-b]pyridin-2-yl]carbonyl}hexahydropyrazino[2,1-c][1,4]oxazin-4(3H)-one]	194
CN(C(=O)c1nc2c(N3CCOCC3)cc(-c3cnn(C)c3)nc2[nH]1)C1CCN(C2COC2)CC1 [Compound No. 131, N-Methyl-5-(1-methyl-1H-pyrazol-4-yl)-7-(morpholin-4-yl)-N-[1-(oxetan-3-yl)piperidin-4-yl]-3H-imidazo[4,5-b]pyridine-2-carboxamide]	146
Cn1cc(-c2nc(N3CCOCC3)c3nc(C(=O)N4CCNCC4)[nH]c3n2)cn1 [compound 20, [2-(1-Methyl-1H-pyrazol-4-yl)-6-(morpholin-4-yl)-9H-purin-8-yl](piperazin-1-yl)methanone]	86
CCOC(=O)CN1CCN(C(=O)c2nc3c(N4CCOCC4)nc(-c4cnn(C)c4)nc3[nH]2)CC1 [compound 45, Ethyl (4-{[2-(1-methyl-1H-pyrazol-4-yl)-6-(morpholin-4-yl)-9H-purin-8-yl]carbonyl}piperazin-1-yl)acetate]	48
Cc1n[nH]c(C)c1-c1nc(N2CCOCC2)c2nc(C(=O)N3CCC(N4CCOCC4)CC3)[nH]c2n1 [compound 16, [2-(3,5-Dimethyl-1H-pyrazol-4-yl)-6-(morpholin-4-yl)-9H-purin-8-yl][4-(morpholin-4-yl)piperidin-1-yl]methanone]	88
CN1CCN(C(=O)c2nc3c(N4CCOCC4)nc(-c4cnn(C)c4)nc3[nH]2)CC1 [compound 46, (4-Methylpiperazin-1-yl)[2-(1-methyl-1H-pyrazol-4-yl)-6-(morpholin-4-yl)-9H-purin-8-yl]methanone]	69
Cc1nn(C)cc1-c1nc(N2CCOCC2)c2nc(C(=O)N3CCN(C4CCOCC4)CC3)[nH]c2n1 [compound 9, [2-(1,3-Dimethyl-1H-pyrazol-4-yl)-6-(morpholin-4-yl)-9H-purin-8-yl][4-(tetrahydro-2H-pyran-4-yl)piperazin-1-yl]methanone]	9
Cn1cc(-c2nc(N3CCOCC3)c3nc(C(=O)NC4CCN(Cc5ccccc5)CC4)[nH]c3n2)cn1 [compound 49, N-(1-Benzylpiperidin-4-yl)-2-(1-methyl-1H-pyrazol-4-yl)-6-(morpholin-4-yl)-9H-purine-8-carboxamide]	62
Cc1nn(C)c(C)c1-c1nc2[nH]c(C(=O)N3CCC(N4CCOCC4)CC3)nc2c(N2CCOCC2)c1F [Compound No. 93]	26
Cn1cc(-c2cc(N3CCOCC3)c3nc(C(=O)N4CC(N5CCNC(=O)C5)C4)[nH]c3n2)cn1 [Compound No. 128, 4-(1-{[5-(1-Methyl-1H-pyrazol-4-yl)-7-(morpholin-4-yl)-3H-imidazo[4,5-b]pyridin-2-yl]carbonyl}azetidin-3-yl)piperazin-2-one]	19
Cn1cc(-c2nc(N3CCOCC3)c3nc(C(=O)NCCc4cccnc4)[nH]c3n2)cn1 [compound 1, 2-(1-Methyl-1H-pyrazol-4-yl)-6-(morpholin-4-yl)-N-[2-(pyridin-3-yl)ethyl]-9H-purine-8-carboxamide]	61
CCn1c(C(=O)N2CCC(N(C)C)CC2)nc2c(N3CCOCC3)nc(-c3cnn(C)c3)nc21 [compound 21, [4-(Dimethylamino)piperidin-1-yl][9-ethyl-2-(1-methyl-1H-pyrazol-4-yl)-6-(morpholin-4-yl)-9H-purin-8-yl]methanone]	313
Cn1cc(-c2nc(N3CCOCC3)c3nc(C(=O)N4CCN5C(=O)COC[C@H]5C4)[nH]c3n2)cn1 [compound 6, (9aR)-8-{[2-(1-Methyl-1H-pyrazol-4-yl)-6-(morpholin-4-yl)-9H-purin-8-yl]carbonyl}hexahydropyrazino[2,1-c][1,4]oxazin-4(3H)-one]	36
Cn1cc(-c2nc(N3CCOCC3)c3nc(C(=O)N4CC(O)C4)[nH]c3n2)cn1 [compound 4, (3-Hydroxyazetidin-1-yl)[2-(1-methyl-1H-pyrazol-4-yl)-6-(morpholin-4-yl)-9H-purin-8-yl]methanone]	27

Results, then the compound that gave them:

IC50 [nM]	SMILES
131	Cn1cc(-c2nc3c(nc(C(=O)N4CCC5(CC4)COC5)n3C)c(N3CCOCC3)c2F)cn1 [compound 108, [6-Fluoro-3-methyl-5-(1-methyl-1-pyrazol-4-yl)-7-(morpholin-4-yl)-3H-imidazo[4,5-b]pyridin-2-yl](2-oxa-7-azaspiro[3.5]non-7-yl)methanone]
365	Cc1nn(C)c(C)c1-c1nc2[nH]c(C(=O)N3CCC(N4CCOCC4)CC3)nc2c(N2CCOCC2)c1C [compound 88, [6-Methyl-7-(morpholin-4-yl)-5-(1,3,5-trimethyl-1H-pyrazol-4-yl)-3H-imidazo[4,5-b]pyridin-2-yl][4-(morpholin-4-yl)piperidin-1-yl]methanone]
50	C[C@@H]1CN(C2CCN(C(=O)c3nc4c(N5CCOCC5)cc(-c5cn[nH]c5)nc4[nH]3)CC2)C[C@H](C)O1 [compound 118, {4-[cis-2,6-Dimethylmorpholin-4-yl]piperidin-1-yl}[7-(morpholin-4-yl)-5-(1H-pyrazol-4-yl)-3H-imidazo[4,5-b]pyridin-2-yl]methanone]
58	Cc1nn(C)cc1-c1nc2c(nc(C(=O)N3CCC(C(C)(C)O)CC3)n2C)c(N2CCOCC2)c1F [compound 107, [5-(1,3-Dimethyl-1H-pyrazol-4-yl)-6-fluoro-3-methyl-7-(morpholin-4-yl)-3H-imidazo[4,5-b]pyridin-2-yl][4-(2-hydroxypropan-2-yl)piperidin-1-yl]methanone]
22	Cc1nn(C)cc1-c1cc(N2CCOCC2)c2nc(C(=O)N3CCC(N4CCOCC4)CC3)n(C)c2n1 [compound 104, [5-(1,3-Dimethyl-1H-pyrazol-4-yl)-3-methyl-7-(morpholin-4-yl)-3H-imidazo[4,5-b]pyridin-2-yl][4-(morpholin-4-yl)piperidin-1-yl]methanone]
16	Cn1cc(-c2cc(N3CCOCC3)c3nc(C(=O)NCCCN4CCOCC4)[nH]c3n2)cn1 [compound 115, 5-(1-Methyl-1H-pyrazol-4-yl)-7-(morpholin-4-yl)-N-[3-(morpholin-4-yl)propyl]-3H-imidazo[4,5-b]pyridine-2-carboxamide]
20	Cn1cc(-c2nc(N3CCOCC3)c3nc(C(=O)N4CCC5(CC4)CNC(=O)C5)[nH]c3n2)cn1 [compound 122, 8-{[2-(1-Methyl-1H-pyrazol-4-yl)-6-(morpholin-4-yl)-9H-purin-8-yl]carbonyl}-2,8-diazaspiro[4.5]decan-3-one]
10	Cn1cc(-c2cc(N3CCOCC3)c3nc(C(=O)N4CC(N5CCOCC5)C4)[nH]c3n2)cn1 [compound 120, [5-(1-Methyl-1H-pyrazol-4-yl)-7-(morpholin-4-yl)-3H-imidazo[4,5-b]pyridin-2-yl][3-(morpholin-4-yl)azetidin-1-yl]methanone]
